# Measurements published in patent US8980646B2, “Proteolytic and covalent antibodies” (priority 2003, dated 2015).
# B1: trypsin: porcine trypsin, type IX, Sigma (protein, UniProt P00761 9-231, looked up)
# Trypsin: IVGGYTCAANSIPYQVSLNSGSHFCGGSLINSQWVVSAAHCYKSRIQVRLGEHNIDVLEGNEQFINAAKIITHPNFNGNTLDNDIMLIKLSSPATLNSRVATVSLPRSCAAAGTECLISGWGNTKSSGSSYPSLLQCLKAPVLSDSSCKSSYPGQITGNMICVGFLEGGKDSCQGDSGGPVVCNGQLQGIVSWGYGCAQKNKPGVYTKVCNYVNWIQQTIAAN
# Key:
# [1] = target: HIV-1 gp120 (MN strain, recombinant, baculovirus expression system) (HIV-1, MN strain) (UniProt P05877); experiment: ELISA, serum 1:100, immobilized gp120
# [2] = target: exEGFR protein CRA IV (human) (UniProt P00533)
# [3] = target: gp120-CRA III (HIV-1, MN strain) (UniProt P05877); experiment: ELISA, serum 1:100, immobilized III
# [4] = tested on: peptide-AMC substrates; experiment: Peptide-AMC cleavage by IgM, IgG and Fab (fluorimetry); type: biochemical; settings: 675 nM pepsin; other conditions as FIG. 31B
# [5] = tested on: human IgG HS-2; experiment: Irreversible inhibition of HS-2 IgG-catalyzed [Tyr10-125I]-VIP cleavage; type: biochemical; settings: for IC50: IgG 2 μM preincubated 16 h with CRA, unreacted CRA removed
# Experimental: FIG. 23. Inhibition of polyclonal antibody catalyzed VIP cleavage by VIP-CRA 3 and hapten CRA 1. Panel A: Reversed-phase HPLC profiles showing cleavage of [Tyr^10-^125I]-VIP at multiple sites by human IgG HS-2. [Tyr^10-^1251I]-VIP incubated in the presence (●) or absence (◯) of HS-2 IgG (2 μM) for 16 h and subjected to HPLC [Nova-pak C, 3.9×150 mm; 0.1% TFA in water: 0.1% TFA in 80% acetonitrile 95:5 for 10 min, 95:5 to 30:70 in 55 min, 30:70 to 0:100 in 5 min, 0:100 for 5 min (0.5 ml/min)]. Shown are values of ^125I radioactivity recovered in the HPLC fractions (0.5 ml). Panel B: Irreversible inhibition of HS-2 IgG-catalyzed [Tyr^10-^125I]-VIP cleavage by VIP-CRA 3 and hapten CRA 1. IgG (2 μM) was preincubated for 16 h in the absence or presence of increasing concentrations of VIP-CRA 3 (●) or hapten CRA 1 (◯). Following removal of unreacted CRA by chromatography on immobilized Protein G, the residual catalytic activity of the IgG was measured using [Tyr^10-^125I]-VIP as substrate. Data are means±SD. Control HS-2 IgG incubated in the absence of CRAs cleaved 2791 c.p.m. [Tyr^10-^125I]-VIP.
# Preparation and assay of cleavage of [Tyr^10-^125I]-VIP were described previously (24). To determine if the CRAs inhibit Abs irreversibly, IgG (2 μM) was incubated (37° C.) with 1 or 3 for 16 h in 50 mM Tris.HCl-0.1M Gly (pH 8.0) containing 2.5% DMSO and 0.025% Tween 20. Unreacted 1 or 3 was then removed by chromatography of the reaction mixtures (0.2 ml) on protein G columns as in ref35 (50 μl settled gel; washed with 0.8 ml 50 mM Tris.HCl, pH 7.4; eluted with 0.2 ml 0.1 M Gly.HCl, pH 2.7; neutralized with 1M Tris.HCl, pH 9). Fifty μl aliquots of the recovered IgG (and IgG-CRA complexes) were incubated with [Tyr^10-^125I]-VIP (86,000 c.p.m.) for 18 h and peptide cleavage was determined by measuring the radioactivity soluble in trichloroacetic acid. Control IgG samples were incubated without CRA, chromatographed and analyzed for VIP cleaving activity in the same way.
# [6] = tested on: anti-VIP IgG c23.5 light chain; type: binding, mouse
# [7] = tested on: murine splenocytes; experiment: Hapten CRA I staining of splenocytes / B cells (microscopy, flow cytometry, extract affinity chromatography)
# [8] = tested on: polyclonal murine IgM; type: biochemical, mouse
# [9] = tested on: IgG; type: biochemical, human
# [10] = Irreversible hapten CRA I binding by IgG, scFv and trypsin (SDS-electrophoresis of biotin-containing adducts); settings: CRA I 100 μM; linear regression of FIG. 8B data
molecule,measurement,setting,value
nonimmune mouse IgG / nonimmune mouse serum (antibody),A490,[1],0.001 A490
same,kobs (pseudo-first order rate constant for accumulation of adducts),[2],< 0.0072 h⁻¹
same,A490,[3],-0.002 A490
pepsin: purified porcine pepsin used as control,cleavage of Glu-Ala-Arg-AMC by pepsin,[4],did not cleave
"VIP-CRA 3: N-terminally biotinylated VIP with amidino phosphonate diester on the Lys20 side chain; called VIP-CRA 4 in Examples VI, XI",VIP-CRA concentration giving near-complete inhibition of catalysis,[5]; IgG 2 μM preincubated 16 h,> 20 µM
same,IC50,[5],7 µM
vasoactive intestinal peptide [VIP],inhibition of formation of VIP-CRA 3 adducts with anti-VIP light chain,[6],41.0±7%
"N=C(N)c1ccc(C(NC(=O)CCCCCNC(=O)CCCC[C@@H]2SC[C@@H]3NC(=O)N[C@@H]32)P(=O)(Oc2ccccc2)Oc2ccccc2)cc1 (stereo partly drawn) [hapten CRA I, Diphenyl N-(6-biotinamidohexanoyl)amino(4-amidinophenyl)methanephosphonate]",cell viability following incubation (trypan blue exclusion),[7],No loss of viability
same,CRA I-stained cells positive for B cell marker CD19,[7]; 3 repeat experiments,82±4%
same,total CRA content of B cells adsorbed by immobilized Abs to μ and κ/λ chains,"[7]; B cell extract, densitometry",Eighty
same,cells displaying intense staining,"[7]; N 3 experiments, counting 400 lymphocytes, UV microscope",11±2
same,minority subpopulation with very high fluorescence intensity,[7]; flow cytometry,14%
same,CRA I-treated cells with fluorescence intensity exceeding compound II-treated cells,"[7]; flow cytometry, 100 μM, 4 hours",Seventy nine
same,inhibition of murine IgM activity,[8],9-100%
same,IC50,"[8]; read-out: IC50, murine IgM Glu-Ala-Arg-AMC cleavage",42 µM
same,IC50,[5],36 µM
same,effect on IgG-catalyzed peptide-MCA cleavage,[9],inhibited
B1,velocity of covalent I adduct formation,[10],11.9±0.6 AAU/min
